For five molecules, inhibition, Activity and Drug uptake results are on record in ChEMBL document CHEMBL4420061, “Compositions and methods of inhibiting retinal degeneration” (2013).

Structures are written as SMILES. The source made the active and inactive calls. No cut-off for these calls is given here.

Data set [1] relates to Rattus norvegicus. As to the kind of experiment: Inhibition of rhodopsin regeneration in overnight dark-adaptated Sprague-Dawley rat assessed as effect on rhodopsin recovery by measuring rhodopsin content at 50 mg/kg, ip followed by exposure to room light for 2 hrs and measured 2.5 hrs after photo-bleach by spectrophotometry. It is filed as functional, organism-based.
Data set [2] concerns Rattus norvegicus. As to the kind of experiment: Protection against light-induced retinal degeneration in Sprague-Dawley rat assessed as photoreceptor levels in central and superior retina at 50 mg/kg, ip dosed 0.5 hrs before 6 hrs light exposure relative to control. It is filed as functional.
In data set [3] the test system is Rattus norvegicus. As to the kind of experiment: Protection against light-induced retinal degeneration in overnight dark-adaptated Sprague-Dawley rat assessed as protection of retinal rod function by measuring effect on A-waves at 50 mg/kg, ip dosed 30 mins prior to exposure to 4 log cd.s/m2 test flash by electroretinography relative to control. It is filed as functional.

The test system of data set [4] is Rattus norvegicus. As to the kind of experiment: Protection against light-induced retinal degeneration in Sprague-Dawley rat assessed as suppression of light-induced retinal function loss by measuring Rod-a and b-wave responses at 50 mg/kg, ip dosed 0.5 hrs before 6 hrs light exposure and measured 7 days after light-exposure by electroretinography. It is filed as functional, organism-based.

The subject of data set [5] is Rattus norvegicus. As to the kind of experiment: Protection against light-induced retinal degeneration in Sprague-Dawley rat assessed as suppression of light-induced retinal structure loss at 50 mg/kg, ip dosed 0.5 hrs before 6 hrs light exposure and measured 7 days after light-exposure by electroretinography. The class given is functional, organism-based.
Data set [6] relates to Rattus norvegicus. The data set can be described thus: Protection against light-induced retinal degeneration in Sprague-Dawley rat assessed as suppression of light-induced retinal function loss by measuring Rod-a and b-wave responses at 50 mg/kg, ip dosed 0.5 hrs after 6 hrs light exposure and measured 7 days after light-exposure by electroretinography. It is filed as functional, organism-based.

Data set [7] concerns Rattus norvegicus. As to the kind of experiment: Protection against light-induced retinal degeneration in Sprague-Dawley rat assessed as suppression of light-induced retinal structure loss at 50 mg/kg, ip dosed 0.5 hrs after 6 hrs light exposure and measured 7 days after light-exposure by electroretinography. The class given is functional, organism-based.
The test system of data set [8] is Rattus norvegicus. As to the kind of experiment: Protection against light-induced retinal degeneration in Sprague-Dawley rat assessed as suppression of light-induced retinal function loss by measuring preservation of cone function at 50 mg/kg, ip dosed 0.5 to 12 hrs before 6 hrs light exposure and measured 7 days after light-exposure by electroretinography. It is filed as functional, organism-based.

Data set [9] relates to Rattus norvegicus. The data set can be described thus: Protection against light-induced retinal degeneration in Sprague-Dawley rat assessed as suppression of light-induced retinal function loss by measuring preservation of cone function at 50 mg/kg, ip dosed 16 to 24 hrs before 6 hrs light exposure and measured 7 days after light-exposure by electroretinography. The class given is functional, organism-based.

Data set [10] has as its system Rattus norvegicus. The data set can be described thus: Protection against light-induced retinal degeneration in Sprague-Dawley rat assessed as suppression of light-induced retinal function loss by measuring preservation of cone function at 50 mg/kg, ip dosed after 6 hrs light exposure and measured 7 days after light-exposure by electroretinography. The class given is functional, organism-based.

Data set [11] addresses T1, Retinoid isomerohydrolase (Rattus norvegicus) (UniProt O70276).
T1 sequence (whole entry): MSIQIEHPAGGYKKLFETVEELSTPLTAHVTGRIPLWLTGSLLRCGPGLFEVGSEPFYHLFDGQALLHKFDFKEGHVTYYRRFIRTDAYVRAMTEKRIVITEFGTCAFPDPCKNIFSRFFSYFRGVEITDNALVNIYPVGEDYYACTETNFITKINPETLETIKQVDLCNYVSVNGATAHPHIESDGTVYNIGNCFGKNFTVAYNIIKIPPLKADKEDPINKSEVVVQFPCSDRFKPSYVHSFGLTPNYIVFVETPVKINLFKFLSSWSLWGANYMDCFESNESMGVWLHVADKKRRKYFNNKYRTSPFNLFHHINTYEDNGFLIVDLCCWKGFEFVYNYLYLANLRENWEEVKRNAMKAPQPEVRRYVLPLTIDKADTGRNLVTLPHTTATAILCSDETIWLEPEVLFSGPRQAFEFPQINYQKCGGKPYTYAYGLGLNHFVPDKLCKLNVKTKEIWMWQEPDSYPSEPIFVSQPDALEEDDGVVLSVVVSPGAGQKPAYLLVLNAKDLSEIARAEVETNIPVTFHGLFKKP
As to the kind of experiment: Inhibition of RPE65 in rat RPE microsomes assessed as reduction in isomero-hydrolase activity by measuring 11-cis-retinol generation using all-trans-[3H]-retinol by HPLC analysis.

Data set [12] concerns Mus musculus. As to the kind of experiment: Inhibition of rhodopsin regeneration in completely light-adapted mouse BALB/c mouse assessed as rhodopsin recovery level by measuring effect on rhodopsin content at 5% dosed to eyes via eye drop before dark adaptation for 1 hr by spectrophotometry (reference value: 78.83%). The class given is functional. Also noted: scale not given: the % may be the effect or the level left.

Data set [13] has as its system Mus musculus. The data set can be described thus: Inhibition of rhodopsin regeneration in completely light-adapted mouse BALB/c mouse assessed as effect on rhodopsin content at 10% dosed to eyes via eye drop for 3 times at 6, 3 and 0 hrs before dark adaptation for 1 hr by spectrophotometry. It is filed as functional, organism-based.
Data set [14] concerns Rattus norvegicus. As to the kind of experiment: Protection against light-induced retinal degeneration in Sprague-Dawley rat assessed as suppression of light-induced retinal function loss by measuring Rod-a and b-wave responses at 50 mg/kg, ip dosed up to 12 hrs before 6 hrs light exposure and measured 7 days after light-exposure by electroretinography. The class given is functional, organism-based.

Data set [15] has as its system Rattus norvegicus. The data set can be described thus: Protection against light-induced retinal degeneration in Sprague-Dawley rat assessed as suppression of light-induced retinal structure loss at 50 mg/kg, ip dosed up to 12 hrs before 6 hrs light exposure and measured 7 days after light-exposure by electroretinography. The class given is functional, organism-based.

In data set [16] the test system is Rattus norvegicus. As to the kind of experiment: Protection against light-induced retinal degeneration in Sprague-Dawley rat assessed as suppression of light-induced retinal function loss by measuring Rod-a and b-wave responses at 50 mg/kg, ip dosed 16 to 24 hrs before 6 hrs light exposure and measured 7 days after light-exposure by electroretinography. The class given is functional, organism-based.

The test system of data set [17] is Rattus norvegicus. As to the kind of experiment: Protection against light-induced retinal degeneration in Sprague-Dawley rat assessed as suppression of light-induced retinal structure loss at 50 mg/kg, ip dosed 16 to 24 hrs before 6 hrs light exposure and measured 7 days after light-exposure by electroretinography. The class given is functional, organism-based.

The test system of data set [18] is Rattus norvegicus. The data set can be described thus: Effect on cone function in Sprague-Dawley rat at 50 mg/kg, ip under steady rod-suppressing background illumination 60 mins post compound dosing by single- and flicker-flash ERG recordings based assay. It is filed as functional, organism-based.
Data set [19] concerns Rattus norvegicus. As to the kind of experiment: Inhibition of rhodopsin regeneration in overnight dark-adaptated Sprague-Dawley rat assessed as effect on rhodopsin recovery by measuring rhodopsin content at 50 mg/kg, ip followed by exposure to room light for 2 hrs and measured 45 mins after photo-bleach by spectrophotometry (reference value: 100%). It is filed as functional. The arrangement: scale not given: the % may be the effect or the level left.

Data set [20] concerns Rattus norvegicus. As to the kind of experiment: Inhibition of rhodopsin regeneration in overnight dark-adaptated Sprague-Dawley rat assessed as effect on rhodopsin recovery by measuring rhodopsin content at 50 mg/kg, ip followed by exposure to room light for 2 hrs and measured 3 hrs after photo-bleach by spectrophotometry (reference value: 100%). Also noted: scale not given: the % may be the effect or the level left. The class given is functional.

Data set [21] is filed under the species Mus musculus. The data set can be described thus: Inhibition of retinal RDH activity in mouse retinal microsomes assessed as effect on NADPH-dependent reduction of all-trans-retinal. The settings on record: Retina.
The target of data set [22] is T1, Retinoid isomerohydrolase (Rattus norvegicus). As to the kind of experiment: Inhibition of RPE65 in rat RPE microsomes assessed as reduction in isomero-hydrolase activity by measuring 11-cis-retinol generation at 1 mM using all-trans-[3H]-retinol by HPLC analysis.
In data set [23] the target is T2, Lecithin retinol acyltransferase (Rattus norvegicus) (UniProt Q9JI61).
T2 sequence (whole entry): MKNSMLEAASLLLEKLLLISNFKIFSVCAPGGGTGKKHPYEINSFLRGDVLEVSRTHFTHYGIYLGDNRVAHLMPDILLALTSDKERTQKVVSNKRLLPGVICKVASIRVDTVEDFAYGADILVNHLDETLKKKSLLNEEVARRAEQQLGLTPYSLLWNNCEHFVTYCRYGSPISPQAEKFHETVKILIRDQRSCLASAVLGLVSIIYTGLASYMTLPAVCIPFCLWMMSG
As to the kind of experiment: Inhibition of LRAT in rat RPE microsomes assessed as reduction in retinyl-ester at 1 mM using all-trans-[3H]-retinol by HPLC analysis.

Data set [24] has as its system Mus musculus. The data set can be described thus: Inhibition of rhodopsin regeneration in completely light-adapted mouse BALB/c mouse assessed as effect on rhodopsin content at 10% dosed to eyes via eye drop for 2 times at 3 and 0 hrs before dark adaptation for 1 hr by spectrophotometry. It is filed as functional, organism-based.
Data set [25] deals with Mus musculus. The data set can be described thus: Inhibition of rhodopsin regeneration in completely light-adapted mouse BALB/c mouse assessed as effect on rhodopsin content at 10% dosed to eyes via eye drop followed by mouse moving to dark for 1 hr by spectrophotometry. It is filed as functional, organism-based.
A short description of data set [26]: Drug level in posterior eye cup of completely light-adapted mouse BALB/c mouse at 10% dosed to eyes via eye drop for 3 times at 6, 3 and 0 hrs before dark adaptation for 1 hr by mass spectrometry. It is filed as ADME, organism-based. The note with it: in vivo, topical_or_ocular.
The subject of data set [27] is Mus musculus. As to the kind of experiment: Protection against light-induced retinal degeneration in BALB/c mouse assessed as suppression of light-induced retinal rod function loss at 10% topical application dosed 0.5 hrs before 6 hrs light exposure and measured 5 days after light-exposure by electroretinography. It is filed as functional, organism-based.
Another data set has as its system Baboon. As to the kind of experiment: Inhibition of rhodopsin regeneration in anesthetized baboon assessed as rhodopsin regeneration by measuring rhodopsin content in eye at 10 mg/ml dosed as two drops for every 15 minutes for 1.75 hrs by spectrophotometry (reference value: 100%). The class given is functional, Papio. Also noted: scale not given: the % may be the effect or the level left.

Data set [28] is described as follows: Drug level in […] in anesthetized baboon assessed per mg wet weight at 10 mg/ml dosed as two drops for every 15 minutes for 1.75 hrs by mass spectrometry. It is filed as ADME, organism-based, Papio. The note with it: in vivo, topical_or_ocular.

Turning to `Cc1ccc(/C=[N+](\[O-])C(C)(C)C)cc1`, the inhibition result in the data set on Rattus norvegicus [1] is “Active”. Moreover, the result in the data set on Rattus norvegicus [2] was Active.

Take `CC(C)(C)/[N+]([O-])=C/c1ccc(C(F)(F)F)cc1`: in the data set on Rattus norvegicus [1], the inhibition result is “Active”. For the same molecule, the Activity with Rattus norvegicus [3] was 804%. Moreover, in the data set with Rattus norvegicus [2], the result was Active.

For `CC(C)(C)/[N+]([O-])=C/c1ccccc1S(=O)(=O)[O-].[Na+]`, the outcome in the data set with Rattus norvegicus [4], with Rattus norvegicus [5], in the data set with Rattus norvegicus [6], in the data set with Rattus norvegicus [7], with Rattus norvegicus [8] and with Rattus norvegicus [9] was inactive. Also, in the data set on Rattus norvegicus [10], the result was inactive. The inhibition entry in data set [11] is “inactive”. Besides, the Activity in the data set on Mus musculus [12] is reported as 84.64%.

Consider `CC(C)(C)/[N+]([O-])=C/c1ccccc1`, for which the inhibition result with Mus musculus [13], with Rattus norvegicus [1], in the data set on Mus musculus [24] and in the data set with Mus musculus [25] was “Active” in each case. Further, the outcome in the data set with Rattus norvegicus [4], with Rattus norvegicus [5], in the data set on Rattus norvegicus [14], in the data set with Rattus norvegicus [15], in the data set on Rattus norvegicus [8] and with Mus musculus [27] was Active. Also, the result with Rattus norvegicus [6], in the data set on Rattus norvegicus [7], in the data set on Rattus norvegicus [16], in the data set on Rattus norvegicus [17], with Rattus norvegicus [9] and in the data set on Rattus norvegicus [10] was inactive. Also, the result in the data set on Rattus norvegicus [18] was inactive. Further, the Activity is on record as 0% in the data set on Rattus norvegicus [19], 0% with Rattus norvegicus [20], 90% in the data set with Rattus norvegicus [2] and 26 - 36% in the data set on Baboon. Besides, the inhibition entry (in the data set filed under Mus musculus [21]; in data set [23]) was “inactive” each time. Further, the inhibition is 100% in data set [22] and “Dose-dependent effect” in data set [11]. Besides, the results for the Drug uptake result in data set [26] and in data set [28] were “Active” and 23.5 to 24.2 ng, respectively.

On to `CC(C)(C)/[N+]([O-])=C/c1ccc(F)cc1`, for which, in the data set on Rattus norvegicus [1], the inhibition entry was “Active”. Besides, the outcome with Rattus norvegicus [2] was Active.

In general, inhibition refers to the change of the read-out against control, counted positive when it falls.
